Like-named read-outs stand apart in the source and are kept apart here.
Experiments:
[1] = tested on: Influenza A (H1N1) virus FM1 strain; experiment: Mouse pneumonia model infected with influenza A (H1N1) virus FM1 strain (lung index); format: in vivo, ICR mice; details: for inhibition in vivo at 20 mg/kg / inhibition in vivo at 40 mg/kg / inhibition in vivo at 25 mg/kg / inhibition in vivo at 50 mg/kg: Influenza A virus, H1N1, po, 96 h, read-out: inhibition rate (%)
Procedure: ICR mice were taken and randomly divided into: normal control group, model control group, ribavirin control group, compound 4, compound F1, compound F2, and compound F3 according to their weight class, and each drug was given in two dosage groups (10 mice in each group). Except for the normal control group, mice were slightly anesthetized with ether and infected with 15 LD50 H1N1 influenza virus liquid FM1 strain by nasal drops (30 μl per animal). The administration was started on the day of infection at 0.2 ml/10 g by gavage each time once a day for 4 days, and the normal control and model control groups were gavaged with distilled water under the same conditions. The mice were weighed and dissected on Day 5, and the lung was weighed to calculate lung index and lung index inhibition. The results were statistically processed using t-test for comparison between groups.
ICR mice were taken and randomly divided by weight class: normal control group, model control group, oseltamivir control group, compound 4, compound F4, compound F5, compound 5, and compound 7 according to their weight class, and each drug was given in two dosage groups (10 mice in each group). Except for the normal control group, mice were slightly anesthetized with ether and infected with 15 LD50 H1N1 influenza virus liquid (FM1/PR8 strain) by nasal drops (30 μl per each animal). The administration was started on the day of infection at 0.2 ml/10 g by gavage each time once a day for 4 days, and the normal control and model control groups were gavaged with distilled water under the same conditions. The mice were weighed and dissected on Day 5, and lung was weighed to calculate lung index and lung index inhibition. The results were statistically processed using t-test for comparison between groups.
ICR mice were taken and randomly divided into 9 groups according to the body weight: a normal control group, model control group, oseltamivir control group, and two dosage groups of Compound 9, Compound 12 and Compound 2, 10 mice in each group. Except the normal control group, mice were slightly anesthetized with ether and infected with 15 LD50 H1N1/PR8 influenza virus liquid by nasal drops at 30 μl per mouse. The administration was started on the day of infection, at 0.2 ml/10 g each time by gavage once a day for 4 days, and the normal control and model control groups were gavaged with distilled water under the same conditions. The mice were weighed and dissected on Day 5, and lungs were weighed to calculate lung index and lung index inhibition. The results were statistically processed using t-test for comparison between groups.

[2] = tested on: Human Coronavirus 229E (HCoV-229E); experiment: animal or person; format: in vivo; details: for inhibition in vivo at 7.5 mg/kg/day / inhibition in vivo at 15 mg/kg/day / inhibition in vivo at 30 mg/kg/day / inhibition in vivo at 40 mg/kg/day / inhibition in vivo at 50 mg/kg/day: Human coronavirus 229E, in Mus musculus, po, 96 h, read-out: inhibition rate (%)
[3] = Table 2 (Example 14), 20 mg/kg gavage once a day for 4 days
[4] = Table 2 (Example 14), 40 mg/kg gavage once a day for 4 days
[5] = Table 5 (Example 16), 7.5 mg/kg/d gavage for 4 days
[6] = Table 5 (Example 16), 15 mg/kg/d gavage for 4 days
[7] = Table 5 (Example 16), 30 mg/kg/d gavage for 4 days
[8] = Table 1 (Example 13), 25 mg/kg gavage once a day for 4 days
[9] = Table 1 (Example 13), 50 mg/kg gavage once a day for 4 days
[10] = Table 4 (Example 15), 40 mg/kg/d gavage for 4 days
[11] = Table 4 (Example 15), 50 mg/kg/d gavage for 4 days
[12] = Table 10 (Example 23), 7.5 mg/kg/d gavage for 4 days

Structure (SMILES) | inhibition in vivo at 20 mg/kg [1, 3] [%] | inhibition in vivo at 40 mg/kg [1, 4] [%] | lung index [1, 3] | lung index [1, 4] | inhibition in vivo at 7.5 mg/kg/day [2, 5] [%] | inhibition in vivo at 15 mg/kg/day [2, 6] [%] | inhibition in vivo at 30 mg/kg/day [2, 7] [%] | lung index [2, 5] | lung index [2, 6] | lung index [2, 7] | inhibition in vivo at 25 mg/kg [1, 8] [%] | inhibition in vivo at 50 mg/kg [1, 9] [%] | lung index [1, 8] | lung index [1, 9] | inhibition in vivo at 40 mg/kg/day [2, 10] [%] | inhibition in vivo at 50 mg/kg/day [2, 11] [%] | inhibition in vivo at 7.5 mg/kg/day [2, 12] [%] | lung index [2, 10] | lung index [2, 11] | lung index [2, 12]
CC1(NCCOc2ccc3c(=O)c(-c4ccccc4)coc3c2)CC1 [Compound 5] | -25.1 | 8.44 | 1.20 ± 0.16 | 1.07 ± 0.21 | 22.7 | -17 | -7 | 0.76 ± 0.08 g lung weight × 100/g body weight | 0.80 ± 0.10 g lung weight × 100/g body weight | 0.79 ± 0.08 g lung weight × 100/g body weight | – | – | – | – | – | – | – | – | – | –
O=c1c(-c2ccccc2)coc2cc(OCCNC3CCCCC3)ccc12 [Compound 7] | 21 | 30.2 | 1.02 ± 0.12 | 0.98 ± 0.18 | -17 | 41.6 | 15.8 | 0.80 ± 0.09 g lung weight × 100/g body weight | 0.74 ± 0.06 g lung weight × 100/g body weight | 0.76 ± 0.07 g lung weight × 100/g body weight | – | – | – | – | – | – | – | – | – | –
O=c1c(-c2ccccc2)coc2cc(O)ccc12 [Compound F1, reference compound] | – | – | – | – | – | – | – | – | – | – | 11.1 | 30 | 1.17 ± 0.09 | 1.06 ± 0.13 | 15.9 | 20.4 | 27.2 | 0.81 ± 0.06 g lung weight × 100/g body weight | 0.80 ± 0.05 g lung weight × 100/g body weight | 0.85 ± 0.07 g lung weight × 100/g body weight
COc1ccc(-c2coc3cc(O[C@@H]4OC(CO)[C@@H](O)C(O)C4O)ccc3c2=O)cc1O (stereo partly drawn) [Compound F2, reference compound] | – | – | – | – | – | – | – | – | – | – | 17.1 | 19.1 | 1.13 ± 0.18 | 1.12 ± 0.17 | 1.45 | 10.6 | – | 0.84 ± 0.05 g lung weight × 100/g body weight | 0.82 ± 0.06 g lung weight × 100/g body weight | –
COc1ccc(-c2coc3cc(O)ccc3c2=O)cc1O [Compound F3, reference compound] | – | – | – | – | – | – | – | – | – | – | 4.07 | -18.7 | 1.19 ± 0.31 | 1.31 ± 0.22 | 7.71 | 1.81 | – | 0.83 ± 0.09 g lung weight × 100/g body weight | 0.84 ± 0.06 g lung weight × 100/g body weight | –
COCCOc1ccc2c(=O)c(-c3ccccc3)coc2c1 [Compound F4, reference compound] | -9.25 | -29.3 | 1.14 ± 0.12 | 1.22 ± 0.13 | -86 | -64 | 37.2 | 0.86 ± 0.07 g lung weight × 100/g body weight | 0.84 ± 0.07 g lung weight × 100/g body weight | 0.75 ± 0.13 g lung weight × 100/g body weight | – | – | – | – | – | – | – | – | – | –
CC(=O)NCCOc1ccc2c(=O)c(-c3ccccc3)coc2c1 [Compound F5, reference compound] | -31.3 | 0.35 | 1.22 ± 0.11 | 1.10 ± 0.24 | -41 | -72 | 17 | 0.82 ± 0.08 g lung weight × 100/g body weight | 0.85 ± 0.08 g lung weight × 100/g body weight | 0.77 ± 0.11 g lung weight × 100/g body weight | – | – | – | – | – | – | – | – | – | –

From patent US20250154121A1, “CYCLIC(ALKYL)(AMINO)ALKOXY-SUBSTITUTED ARYL-PYRONE COMPOUND AND USE THEREOF” (priority 2022, published 2025)
